Data set [1] can be described thus: Pharmacokinetics of the compounds in mice (IV and oral single dose). The data set is classed as in vivo. The following applies: mouse, plasma, Balb/c mice; for bioavailability: PO 3 mg/kg vs IV 1 mg/kg, read-out: F(%) absolute oral bioavailability; for AUC(0-t) / Cmax: single dose, Oral (PO) 3 mg/kg suspension, IV 1 mg/kg, route not given. The procedure: Balb/c mice were obtained from Zydus Research Centre, Ahmedabad India, AAALAC Accreditation. All animals were housed in temperature-control rooms with appropriate light/dark cycles. The animals were overnight fasted before oral gavage dosing but were given access to water ad libitum. Food was provided 4 h after dosing. All animal studies were conducted according to protocols reviewed and approved by the Institutional Animal Care and Ethics Committee at the Zydus Research Centre. Compounds were dosed as a solution in 10% NMP and 10% solutol in Normal Saline (Intravenous (IV), 1 mg/kg) and homogenous suspension (Oral (PO), 3 mg/kg) in 0.5% Tween 80 in 0.5% methyl cellulose as a single dose in mice. For mouse composite PK profile was generated. Blood samples were collected at 0.08 (IV only), 0.25, 0.5, 1, 2, 4, 6, 7.5, and 24 h post-dose in Na-heparin coated micro centrifuge tubes. Blood samples were centrifuged to separate plasma which were then stored at −70° C. until analysis. PK parameters were calculated by non-compartmental analysis using Phoenix (Pharsight Corp., Mountain View, Calif.). A model was selected based on the vascular (IV bolus) or extravascular (PO) routes of administration. For the PO route, concentration at time zero was assumed to be zero. Plasma concentrations below the limit of quantitation were treated as zero concentration for the purpose of calculating the mean plasma concentration values. Pharmacokinetic parameters such as maximum plasma concentration (Cmax), area under the curve of concentration over the time (AUC (0-t)) and absolute oral bioavailability (F (%)) of the selected compounds are shown in Table 3.

Data set [2] has as its system Mycobacterium tuberculosis H37Rv. Description: Minimum Inhibitory Concentration (MIC) determination, MABA assay. The following applies: 168 h, 7H9 medium, 7 days at 37° C., alamar blue, read-out: Mtb MIC. The data set is classed as cell-based. The procedure: To assess the bacterial growth inhibitory effect of the compounds of the invention, MABA assay was performed with log phase culture of Mycobacterium tuberculosis H37Rv. Bacterial culture of optical density 0.6-0.8 was diluted to final density of 0.02 in 7H9 medium. 100 μl of diluted Mycobacterium tuberculosis H37Rv was incubated with the test compounds in microtiter plate. A drug free control containing DMSO also was also prepared. Following incubation of the compound with culture for 7 days at 37° C., 20 μl of 0.02% alamar blue (freshly prepared) was added in each well. The color was allowed to develop for 16 h at 37° C. Blue color in the well indicated no growth whereas pink color signifies growth in the well. MIC value is defined as the lowest concentration that prevents the color change from blue to pink. Fluorescence was measured at excitation at 530 nm and emission at 590 nm.
Background: Resazurin is reduced to fluorescent resorufin, in cell work by metabolically active cells.

As a reminder, the bioavailability is dose-corrected exposure relative to a reference, in per cent. In general, AUC(0-t) refers to the area under the concentration-time curve up to a stated or last time point. As a reminder, the Cmax is the peak of the concentration-time curve. One may read the MIC as the smallest concentration in the dilution series that meets the test's criterion for growth inhibition.

Converted amounts (≈) assume the structure as drawn.

Take `COc1ncnc(Cn2nc(C(=O)NCC3(O)CC3)c3ncc(C)nc32)c1C` [Example 14, N-((1-hydroxycyclopropyl)methyl)-1-((6-methoxy-5-methylpyrimidin-4-yl)methyl)-6-methyl-1H-pyrazolo[3,4-b]pyrazine-3-carboxamide]: in data set [1], the bioavailability turned out to be 90%, the AUC(0-t) worked out at 1680 ng·h/mL and the highest level (Cmax) was 1600 ng/mL.
On to `COc1nc(C)ccc1Cn1nc(C(=O)NCC2(O)CC2)c2ncc(C)cc21` [Example 9, N-((1-hydroxycyclopropyl)methyl)-1-((2-methoxy-6-methylpyridin-3-yl)methyl)-6-methyl-1H-pyrazolo[4,3-b]pyridine-3-carboxamide], for which, in data set [1], the bioavailability came to 78%, the AUC(0-t) was determined as 2160 ng·h/mL and the highest level (Cmax) was 1570 ng/mL.
`COc1ncnc(Cn2cc(C(=O)NCC3(O)CC3)c3ncc(C)nc32)c1C` [Example 11, N-((1-hydroxycyclopropyl)methyl)-5-((6-methoxy-5-methylpyrimidin-4-yl)methyl)-3-methyl-5H-pyrrolo[2,3-b]pyrazine-7-carboxamide]: the MIC in data set [2] came out at 0.5 µM (≈ 0.191 µg/mL). In addition, in data set [1], the bioavailability was found to be 100%, the area under the curve AUC(0-t) was 2570 ng·h/mL and the peak concentration (Cmax) came to 1660 ng/mL.
The matching figures for `CCOc1ncnc(Cn2nc(C(=O)NCC3(O)CC3)c3ncc(C)cc32)c1C` [Example 3, 1-((6-ethoxy-5-methylpyrimidin-4-yl)methyl)-N-((1-hydroxycyclopropyl)methyl)-6-methyl-1H-pyrazolo[4,3-b]pyridine-3-carboxamide]: at most 0.625 µM, 100%, 2810 ng·h/mL and 2720 ng/mL.
For `COc1ncnc(Cn2nc(C(=O)NCC3(O)CC3)c3ncc(C)cc32)c1C` [Example 1, N-((1-hydroxycyclopropyl)methyl)-1-((6-methoxy-5-methylpyrimidin-4-yl)methyl)-6-methyl-1H-pyrazolo[4,3-b]pyridine-3-carboxamide], the MIC in data set [2] came out at 1.25 µM (≈ 0.478 µg/mL). In addition, in data set [1], the bioavailability was found to be 100%, the AUC(0-t) amounted to 2850 ng·h/mL and the Cmax stood at 1730 ng/mL.
The matching figures for `CCOc1ncnc(Cn2cc(C(=O)NCC3(O)CC3)c3ncc(C)nc32)c1C` [Example 13, 5-((6-ethoxy-5-methylpyrimidin-4-yl)methyl)-N-((1-hydroxycyclopropyl)methyl)-3-methyl-5H-pyrrolo[2,3-b]pyrazine-7-carboxamide]: 0.25 µM (≈ 0.0991 µg/mL), 100%, 2150 ng·h/mL and 1320 ng/mL.
The matching figures for `COCCNC(=O)c1nn(Cc2ncnc(OC)c2C)c2cc(C)cnc12` [Example 10, 1-((6-methoxy-5-methylpyrimidin-4-yl)methyl)-N-(2-methoxyethyl)-6-methyl-1H-pyrazolo[4,3-b]pyridine-3-carboxamide]: 5 µM (≈ 1.85 µg/mL), 100%, 5130 ng·h/mL and 4000 ng/mL.
The matching figures for `COc1ncnc(Cn2cc(C(=O)NCC3(O)CC3)c3ncc(C)cc32)c1C` [Example 85, N-((1-hydroxycyclopropyl)methyl)-1-((6-methoxy-5-methylpyrimidin-4-yl)methyl)-6-methyl-1H-pyrrolo[3,2-b]pyridine-3-carboxamide]: at most 0.0625 µM, 94%, 2180 ng·h/mL and 1470 ng/mL.
Consider `COc1cnc2c(C(=O)NCC3(O)CC3)cn(Cc3ncnc(OC)c3C)c2n1` [Example 12, N-((1-hydroxycyclopropyl)methyl)-3-methoxy-5-((6-methoxy-5-methylpyrimidin-4-yl)methyl)-5H-pyrrolo[2,3-b]pyrazine-7-carboxamide], for which, in data set [2], the MIC amounted to 0.25 µM (≈ 0.0996 µg/mL). In data set [1], the bioavailability is 100%, the area under the curve AUC(0-t) was determined as 2920 ng·h/mL and the Cmax came out at 1720 ng/mL.

The values are drawn from patent US20210292333A1, “CONDENSED AZAHETEROARYL COMPOUNDS HAVING ANTIBACTERIAL ACTIVITY AGAINST TU[…]” (CADILA HEALTHCARE LIMITED, priority 2018, published 2021).
